Source: patent US20220081676A1, “MICROFLUIDIC DEVICES FOR TATTOO PIGMENT SAFETY” (priority 2019, published 2022)
Read-outs that look alike come from different tables or passages of the source.

Experiments:
Human Liver-Chip = experiment: Effect of Bosentan on albumin secretion, Human Liver-Chip; format: cell-based; conditions: in vivo relevant doses
From the text: (§1) Readouts include but are not limited to: albumin secretion, Effect of Bosentan on Albumin Secretion; Inhibition of BSEP Transporter; Bile acid accumulation Cholyl-lysyl-fluorescein (CLF); BSEP substrate etc.

Dog Liver-Chip = experiment: Effect of Bosentan on albumin secretion, Dog Liver-Chip; format: cell-based; conditions: in vivo relevant doses
From the text: as §1

Static Skin-Chip Model = experiment: Toxicity of pigments tattooed on Static Skin-Chip Model, metabolic activity (Presto Blue); format: cell-based, human
From the text: Tattooed on D4 at ALI, N=4 per condition Hybrid Transwells.
Metabolic Activity (Presto Blue) of Blue15 Pigment. Tattooed on D4 at ALI. N=4 per condition Hybrid Transwells.
Thus, readouts include assessing recovery after damage. Readouts include but are not limited to Invitrogen PrestoBlue™.

Static Skin models = format: cell-based, human
From the text: Red tattoo pigments known to cause some level of toxicity following sun exposure.
D12 ALI (D8 post-tattoo) N=4 per condition. Hybrid Transwells.
Red tattoo pigments known to cause some level of toxicity following sun exposure. […] D12 ALI (D8 post-tattoo) N=4 per condition. Hybrid Transwells.
Safety Assessment of Red122 Pigment—Phototoxicity Assay (Viability) Red tattoo pigments known to cause some level of toxicity following sun exposure. […] Chlorpromazine (CPZ), known to be induce phototoxicity and photosensitization, was used as a positive control.
Barrier Function: Permeability of Cascade Blue (3000 MW); Quantification of skin permeability to Cascade Blue by topical deposition of 50 μl of 10 μM Cascade Blue, followed by 1 hour static incubation. Bottom channel medium collected and Papp determined by quantification of Cascade Blue present in the sampled medium using a plate-reader. […] Permeability of Testosterone and Caffeine; Requires mass spectrometer for detection. These values can be correlated to in vivo skin. Topical Compound Test for Toxicity, Corrosivity, Irritancy, Phototoxicity viability assays performed are MTT or Presto Blue. Corrosivity: a material is considered corrosive if cell viability is <50% after 3 min exposure or <15% after 60 min exposure. […]

[1] = tested on: Static Skin models (Hybrid Transwells); experiment: Phototoxicity and photosensitization to Red122: cytokines release; format: cell-based, human; conditions: tattooed with 35% w/v; for inflammatory and sensitization cytokines (IL-1Beta and IL-18) following UVA exposure: UVA on D11 ALI (D7 post-tattoo)
[2] = tested on: Kidney Proximal Tubule-Chip; experiment: Assessment of tattoo pigment toxicity on the Kidney Proximal Tubule-Chip; format: cell-based, human
Experimental: Channel: Renal Proximal Tubule Epithelial Cells
Bottom Channel: Renal Microvascular Endothelial Cells
Morphology: BF Imaging From Effluent: LDH, ROS
Terminal Endpoints From Lysates: Caspase, ALP
ECM-coating. Sulfo-sanpah (Covachem, #13414), ER1 (0.5 mg/ml) in ER2 50 mM HEPES buffer; Collagen IV (BD Corning, 50 μg/mL in Dulbecco's phosphate-buffered saline (DPBS); and Matrigel (BD Corning, reduced growth factor, 100 ug/ml DPBS). Cells. Top channel. Human Proximal Tubular Epithelial Cells (Lonza, RPTEC #CC-2553); and Bottom channel. Primary Human Glomerular microvascular Endothelial cells (Cell Systems. ACBRI 128), expand to P7 (e.g. passage 7). Media. Renal Epithelial Growth Medium (REGM™ Lonza, CC-3190) for Proximal tubule cells or REGM2 (from PromoCell, Cat #C-26130); and Kidney endothelial cell medium (Cell Systems, 4ZO-500). Chip. High shear chip; under flow shear; and Tall channel closed top-chip. Experimental reagents. Collagen IV coated 6 well plate; and Corning BioCoat Collagen IV multiwall plates, Corning #354428.
One brief exemplary timeline is described as: Day −2: Chip coating; Day −1: Seeding endothelial cells; Day 0: Seeding proximal tubule epithelial cells; Day 0-7: Maintain chips; Day 7: Start Experiment (Study), e.g. 72 hours; and Day 10: End 72 hour Experiment (Study). Exemplary readouts include but are not limited to: Phase contrast microscopic images; immunofluorescent images; barrier function (in particular for kidney-chips, etc.); and Troponin I release (in particular for heart-chips, i.e. cardiac-chips).
Outflow from chips, (e.g. S1—closed top chip; and high shear (HS) chip) was collected for certain readouts. For reference, kidney endothelial media contains 5% FBS while the kidney epithelial media contains 0.5% FBS.

[3] = tested on: Skin-Chip (microfluidic OT-chip); conditions: human
From the text: Readouts include but are not limited to Invitrogen PrestoBlue™. Invitrogen PrestoBlue™ Cell Viability Reagent, e.g. Fisher Scientific, Catalog number: A1326, is an exemplary metabolic Assay Reagent. When added to cells, the PrestoBlue® reagent is modified by the reducing environment of a viable cell and turns red in color, becoming highly fluorescent. This color change can be detected using fluorescence or absorbance measurements.

[4] = tested on: epidermal cells in a Skin-Chip (microfluidic OT-chip)
From the text: In some embodiments, a live-dead staining is used for determining cell viability.

Liver-Chip = experiment: Assessment of tattoo pigment toxicity on the Liver-Chip; conditions: 5 microM
Experimental: Injury to liver function is indicated by […] in albumin Secretion. […] Other functional changes or mechanistic routes may be detectable through additional assays
Pigment with a low concentration of 0.03% of pigment diluent is flowed through the chip (same concentrations both top and bottom channels simultaneously). […] In future applications, we also plan to explore potential toxicity of pigment diluent formulations (without pigments).
Both top and bottom channels were treated
Embodiments of Liver-Chips include: Co-culture (Hepatocytes+LSECs); Tri-culture (Hepatocytes+LSECs+Kupffer cells); Quad-culture (Hepatocytes+LSECs+Kupffer cells+Stellate cells); Human Liver-Chip; Rat Liver-Chip; Dog Liver-Chip; etc.

Static Skin model = format: cell-based, human
Experimental: Tissue robustness evaluated by determining the ET50 value following topical exposure to 1% TritonX-100.
(§2) In one embodiment, tissue robustness was evelauated determining the ET50 value following topical exposure to a test irritant, 1% TritonX-100. Irritation potential is calculated in terms of the “ET50” value: the time taken, in minutes, for a test compound to reduce the viability of the skin model to 50% compared with negative controls. […] Thus, at least one commercially obtained and tested skin equivalent model became permeable faster than one embodiment of a static skin model described herein.
(§3) Immunostaining (IF):Biomarkers characteristic of the stratified epidermal layers should include: • Basement membrane markers: collagen IV, Laminin 5 • Stratum basal: Keratin 14 • Stratum spinosum: Keratin 10 • Stratum granulosum: Filaggrin • Stratum corneum: Involucrin, Loricrin Quality control of tissue reproducibility from sample to sample and lot to lot can also be established by comparison of ET50 values to a baseline value. Example provided from MatTek for their baseline ET50 value on EpiDerm200—average 6.82 h. Exposure to 1.0% Triton X-100 topically over 12 h.

EpiDerm200 from MatTek [5] = experiment: ET50 following topical exposure to Triton X-100, EpiDerm200 from MatTek; format: cell-based; conditions: skin equivalent model on the market
Experimental: as §2, §3

[6] = tested on: Static Skin model (Hybrid Transwells); experiment: Skin irritation: release of associated cytokines after topical Triton X-100, Hybrid Transwells; format: cell-based, human; conditions: topical exposure
Experimental: D11 ALI. N=3 per condition Hybrid Transwells.
Method 1: ET50 values determined by MTT or Presto Blue assay will define the class of irritancy based on in vivo classification (see table below). Topical exposures will include 3 exposure times of 2 h, 5 h and 18 h to 100 ul or 100 mg of a test material. Positive control include 5% SDS and 1% Triton X-100. Method 2: a material is considered an irritant is viability is <50% after 1 h topical exposure to 30 ul or 25 mg/of test material (OECD TG 439) Method 3: a material is considered an irritant if there is an increase in the following cytokines compared to control by ELISA is indicative of skin irritant—IL-1alpha, IL-8, prostaglandin PGE2. MatTek Irritancy protocol

EpiDerm200 from MatTek [7] = conditions: cited from earlier work
[8] = tested on: proximal tubular epithelium; experiment: Gentamicin-induced toxicity on Renal-Kidney Proximal Tubule-Chip; format: cell-based, human; conditions: 10 mM for 48 hours
Experimental: Gentamicin treatment is used for inducing damage as a positive control compared to controls without Gentamicin.
Readouts include but are not limited to: Gentamicin-induced toxicity after exposure to 10 mM of gentamicin for 48 hours.

For `COc1ccccc1Oc1c(NS(=O)(=O)c2ccc(C(C)(C)C)cc2)nc(-c2ncccn2)nc1OCCO` [Bosentan], the “albumin secretion, dose response” value (Human Liver-Chip) was “dose response effects” and the “albumin secretion, dose response” value (Dog Liver-Chip) was “dose response effects”.

For `Cc1ccc2[nH]c3cc4c(=O)c5cc(C)ccc5[nH]c4cc3c(=O)c2c1` [Red122], the “viability (metabolic activity, Presto Blue)” value (Static Skin-Chip Model; 24 h post-tattoo, tattooed on D4 at ALI, Hybrid Transwells) was “decrease in viability with increasing Red122 concentration”, the “skin recovery (viability)” value (Static Skin-Chip Model; over 8 days post-tattoo) was “Skin recovery observed” and the “viability from healthy after UVA (phototoxicity)” value (Static Skin models) was 85%. For the same compound, the “inflammatory and sensitization cytokines (IL-1Beta and IL-18) following UVA exposure” value [1] was “both cytotoxicity and sensitization following UVA exposure”, the “inflammatory and sensitization cytokines (IL-1Beta and IL-18) following UVA exposure” value ([1]; listed as Red) was “increase in both cytokines” and the “effect as a skin sensitizer (cytokine release)” value ([1]; no UVA) was “no effect as a skin sensitizer”. For the same compound, the “secretion of inflammatory cytokine” value ([1]; no UVA) was “increased secretion of inflammatory cytokine”, the caspase activity ([2]; between the different doses) was “No significant differences were noted in caspase activity” and the “kidney toxicity via LDH release” value ([2]; between the different doses) was “No significant changes in LDH”. The ROS activity ([2]; between the different groups) was “No significant differences were observed in the ROS activity” and the “ALP activity (kidney function)” value ([2]; different doses) was “No significant differences were observed in the ALP activity”.

With `O=C(O)CO` [glycolic acid] the “metabolic activity (PrestoBlue) as percentage of untreated control” value [3] was “statistically significant reduction in activity compared to the activity of citric acid (0.6M) and lactic acid”.

In the case of `CC(O)C(=O)O` (centres unmarked) [lactic acid], the “cell death by DRAQ7 staining, dead cells/mm^2” value [4] was “statistically significant death of skin cells”.

In the case of `CN[C@@H]1C[C@H]2O[C@@](C)([C@@H]1OC)n1c3ccccc3c3c4c(c5c6ccccc6n2c5c31)C(=O)NC4` [staurosporine], the “ATP synthesis, effluent from the bottom channels” value (Liver-Chip) was “loss of ATP synthesis”, the “albumin secreted over time, effluent from the top channel” value (Liver-Chip) was “loss of secreted albumin” and the hepatocyte cell morphology (Liver-Chip; after 4 days of treatment) was “hepatocyte damage”.

For Triton X-100, the ET50 (Static Skin model) was 11 h, the ET50 (EpiDerm200 from MatTek [5]) was 7 h and the “expression of inflammatory cytokine IL-1B” value [6] was “increase in expression”. The “IL-18 (expressed following skin sensitization)” value ([6]; D11 ALI) was “no significant increase”, the “expression of inflammatory cytokine IL-1alpha” value ([6]; D11 ALI) was “increase in expression” and the “baseline ET50 value, average” value (EpiDerm200 from MatTek [7]; EpiDerm200, 1.0% Triton X-100 topically, provided from MatTek) was 6.82 h. For the same compound, the EPI-200 Triton ET-50 (EpiDerm200 from MatTek [7]; Year 1995) was 6.65 h, the EPI-200 Triton ET-50 (EpiDerm200 from MatTek [7]; Year 1996) was 6.74 h and the EPI-200 Triton ET-50 (EpiDerm200 from MatTek [7]; Year 1997) was 6.78 h. For the same compound, the EPI-200 Triton ET-50 (EpiDerm200 from MatTek [7]; Year 1998) was 7.24 h, the EPI-200 Triton ET-50 (EpiDerm200 from MatTek [7]; Year 1999) was 6.75 h and the EPI-200 Triton ET-50 (EpiDerm200 from MatTek [7]; Year 2000 (through September 2000)) was 6.76 h.

For gentamicin, the “LDH in medium effluent” value [8] was “significant increase”, the “NAG in medium effluent” value [8] was “significant increase” and the “ROS in medium effluent” value [8] was “significant increase”. The “active caspase-3 in cells lysates” value [8] was “increase” and the “microscopic analysis of the proximal tubular epithelium” value [8] was “structural damage”.
